We go through four molecules from patent US10662229B2, “Spider venom peptides and methods of use for modulating sodium channels” (priority 2016, dated 2020).

Assay type in all cases: cell-based
For assay [1], the target named is T1, hNav1.1 (Homo sapiens, UniProt P35498).
T1 construct: host or cells: HEK293
Kind of assay: FLIPR membrane potential assay, hNav1.1. The following applies: for Selectivity for Nav1.7, Nav subtype 1.1: membrane potential assay. The method, then: (§1) HEK293 cells stably expressing hNav1.1, hNav1.2, hNav1.3, hNav1.4, hNav1.5, hNav1.6, hNav1.7 and […] (SB Drug Discovery, Glasgow, UK) were cultured in minimum essential media (MEM) containing 10% v/v FBS supplemented with L-glutamine (2 mM) and selection antibiotics G-418 (0.5 mg/mL), blasticidin (2-4 μg/mL) and zeocin (0.5 mg/mL) as recommended by the manufacturer. CHO cells stably expressing hNav1.8 in a tetracycline-inducible system (Chantest, OH, USA) were cultured in Ham's F-12 containing 10% v/v FBS and selection antibiotics as recommended by the manufacturer. To induce hNav1.8 expression, cells were cultured in the presence of tetracycline (1 μg/mL) for 24 h at 27° C. Cells were grown in a humidified 5% CO2 incubator at 37° C., grown to 70-80% confluence, and passaged every 3-4 days using TrypLE Express (Invitrogen).
(§2) Cells were plated 48 h before the assay on 384-well black walled imaging plates at a density of 10,000 to 15,000 cells per well and were loaded with red membrane potential dye for 30 min at 37° C. (Molecular Devices, CA, USA). One vial of bulk red membrane potential dye was reconstituted to a 10× stock solution with PSS and stored at −20° C. and diluted to 1× solution with PSS on the day of the assay. […] Changes in membrane potential were assessed using the FLIPR^TETRA (excitation 515 to 545 nm, emission 565 to 625 nm) every second for 300 s after adding agonists.

For assay [2], the target named is T2, hNav1.6 (Homo sapiens, UniProt Q9UQD0).
T2 construct: host or cells: HEK293
Kind of assay: FLIPR membrane potential assay, hNav1.6. The following applies: for Selectivity for Nav1.7, Nav subtype 1.6: membrane potential assay. The procedure: as §1, §2

In assay [3] the target is T3, hNav1.4 (Homo sapiens, UniProt P35499).
T3 construct: host or cells: HEK293
Kind of assay: FLIPR membrane potential assay, hNav1.4. Conditions: for Selectivity for Nav1.7, Nav subtype 1.4: membrane potential assay. The procedure:
as §1, §2

The target of assay [4] is T4, hNav1.3 (Homo sapiens, UniProt Q9NY46).
T4 construct: host or cells: HEK293
T4 sequence (Q9NY46 whole entry): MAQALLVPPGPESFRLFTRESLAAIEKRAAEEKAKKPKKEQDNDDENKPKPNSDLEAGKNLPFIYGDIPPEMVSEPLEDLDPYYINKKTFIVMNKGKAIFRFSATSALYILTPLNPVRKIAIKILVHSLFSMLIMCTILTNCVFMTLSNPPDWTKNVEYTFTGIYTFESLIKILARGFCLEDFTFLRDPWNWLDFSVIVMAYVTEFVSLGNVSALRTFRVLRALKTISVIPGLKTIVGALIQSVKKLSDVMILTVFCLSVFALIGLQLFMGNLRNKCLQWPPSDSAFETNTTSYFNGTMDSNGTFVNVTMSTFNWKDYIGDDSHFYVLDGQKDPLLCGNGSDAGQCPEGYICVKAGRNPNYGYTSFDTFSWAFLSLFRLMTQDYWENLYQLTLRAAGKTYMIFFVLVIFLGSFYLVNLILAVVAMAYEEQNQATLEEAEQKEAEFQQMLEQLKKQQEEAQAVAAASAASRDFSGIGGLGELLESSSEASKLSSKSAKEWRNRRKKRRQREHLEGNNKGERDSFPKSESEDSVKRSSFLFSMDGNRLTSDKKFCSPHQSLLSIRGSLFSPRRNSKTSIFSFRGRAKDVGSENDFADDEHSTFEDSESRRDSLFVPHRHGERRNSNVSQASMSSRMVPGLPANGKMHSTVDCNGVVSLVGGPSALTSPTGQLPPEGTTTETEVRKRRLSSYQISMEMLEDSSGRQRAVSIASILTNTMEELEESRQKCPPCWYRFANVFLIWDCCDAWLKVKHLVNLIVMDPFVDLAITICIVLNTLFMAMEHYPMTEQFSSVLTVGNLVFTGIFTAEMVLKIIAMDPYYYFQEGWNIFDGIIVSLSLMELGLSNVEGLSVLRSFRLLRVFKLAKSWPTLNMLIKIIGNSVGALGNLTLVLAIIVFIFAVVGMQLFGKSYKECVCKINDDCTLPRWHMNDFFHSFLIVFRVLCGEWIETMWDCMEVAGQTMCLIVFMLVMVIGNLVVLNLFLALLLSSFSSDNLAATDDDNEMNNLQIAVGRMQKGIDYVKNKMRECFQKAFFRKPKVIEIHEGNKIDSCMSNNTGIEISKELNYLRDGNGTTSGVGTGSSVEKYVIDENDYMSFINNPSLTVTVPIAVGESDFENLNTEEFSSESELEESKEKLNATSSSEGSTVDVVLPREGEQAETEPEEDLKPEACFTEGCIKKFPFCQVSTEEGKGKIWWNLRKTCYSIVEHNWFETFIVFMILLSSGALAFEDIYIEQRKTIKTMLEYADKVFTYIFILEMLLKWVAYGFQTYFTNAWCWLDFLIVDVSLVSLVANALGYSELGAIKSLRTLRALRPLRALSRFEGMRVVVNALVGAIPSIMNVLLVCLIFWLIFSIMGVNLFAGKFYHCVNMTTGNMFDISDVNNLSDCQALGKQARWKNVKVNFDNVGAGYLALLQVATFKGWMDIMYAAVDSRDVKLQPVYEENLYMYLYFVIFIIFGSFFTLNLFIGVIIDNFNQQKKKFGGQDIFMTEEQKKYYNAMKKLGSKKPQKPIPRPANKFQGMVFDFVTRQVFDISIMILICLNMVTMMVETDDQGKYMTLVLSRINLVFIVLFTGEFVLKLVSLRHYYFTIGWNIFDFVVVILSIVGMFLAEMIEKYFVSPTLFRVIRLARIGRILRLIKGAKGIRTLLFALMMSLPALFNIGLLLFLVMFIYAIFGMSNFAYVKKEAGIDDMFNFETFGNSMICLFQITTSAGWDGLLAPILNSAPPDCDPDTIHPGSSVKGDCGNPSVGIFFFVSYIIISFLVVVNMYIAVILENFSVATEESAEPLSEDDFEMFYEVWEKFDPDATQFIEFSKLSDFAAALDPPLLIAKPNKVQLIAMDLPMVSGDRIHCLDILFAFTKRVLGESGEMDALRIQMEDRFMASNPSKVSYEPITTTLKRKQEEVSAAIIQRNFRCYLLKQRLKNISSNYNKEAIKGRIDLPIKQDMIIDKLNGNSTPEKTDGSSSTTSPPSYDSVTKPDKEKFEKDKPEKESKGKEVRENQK
Kind of assay: FLIPR membrane potential assay, hNav1.3. The following applies: for Selectivity for Nav1.7, Nav subtype 1.3: membrane potential assay. The procedure: as §1, §2

Assay [5] has as its target T5, hNav1.7 (Homo sapiens, UniProt Q15858).
T5 construct: host or cells: HEK293
Kind of assay: FLIPR membrane potential assay, hNav1.7. The following applies: for Selectivity for Nav1.7, Nav subtype 1.7: membrane potential assay, reference subtype. The method, then:
as §1, §2

Assay [6] has as its target T6, hNav1.2 (Homo sapiens, UniProt Q99250).
T6 construct: host or cells: HEK293
Kind of assay: FLIPR membrane potential assay, hNav1.2. Conditions: for Selectivity for Nav1.7, Nav subtype 1.2: membrane potential assay. The procedure: as §1, §2

In assay [7] the target is T7, hNav1.5 (Homo sapiens, UniProt Q14524).
T7 construct: host or cells: HEK293
Kind of assay: FLIPR membrane potential assay, hNav1.5. The following applies: for Selectivity for Nav1.7, Nav subtype 1.5: membrane potential assay. The procedure: as §1, §2

Assay [8] deals with T8, hNav1.8 (Homo sapiens, UniProt Q9Y5Y9).
T8 construct: host or cells: HEK293
T8 sequence (Q9Y5Y9 whole entry): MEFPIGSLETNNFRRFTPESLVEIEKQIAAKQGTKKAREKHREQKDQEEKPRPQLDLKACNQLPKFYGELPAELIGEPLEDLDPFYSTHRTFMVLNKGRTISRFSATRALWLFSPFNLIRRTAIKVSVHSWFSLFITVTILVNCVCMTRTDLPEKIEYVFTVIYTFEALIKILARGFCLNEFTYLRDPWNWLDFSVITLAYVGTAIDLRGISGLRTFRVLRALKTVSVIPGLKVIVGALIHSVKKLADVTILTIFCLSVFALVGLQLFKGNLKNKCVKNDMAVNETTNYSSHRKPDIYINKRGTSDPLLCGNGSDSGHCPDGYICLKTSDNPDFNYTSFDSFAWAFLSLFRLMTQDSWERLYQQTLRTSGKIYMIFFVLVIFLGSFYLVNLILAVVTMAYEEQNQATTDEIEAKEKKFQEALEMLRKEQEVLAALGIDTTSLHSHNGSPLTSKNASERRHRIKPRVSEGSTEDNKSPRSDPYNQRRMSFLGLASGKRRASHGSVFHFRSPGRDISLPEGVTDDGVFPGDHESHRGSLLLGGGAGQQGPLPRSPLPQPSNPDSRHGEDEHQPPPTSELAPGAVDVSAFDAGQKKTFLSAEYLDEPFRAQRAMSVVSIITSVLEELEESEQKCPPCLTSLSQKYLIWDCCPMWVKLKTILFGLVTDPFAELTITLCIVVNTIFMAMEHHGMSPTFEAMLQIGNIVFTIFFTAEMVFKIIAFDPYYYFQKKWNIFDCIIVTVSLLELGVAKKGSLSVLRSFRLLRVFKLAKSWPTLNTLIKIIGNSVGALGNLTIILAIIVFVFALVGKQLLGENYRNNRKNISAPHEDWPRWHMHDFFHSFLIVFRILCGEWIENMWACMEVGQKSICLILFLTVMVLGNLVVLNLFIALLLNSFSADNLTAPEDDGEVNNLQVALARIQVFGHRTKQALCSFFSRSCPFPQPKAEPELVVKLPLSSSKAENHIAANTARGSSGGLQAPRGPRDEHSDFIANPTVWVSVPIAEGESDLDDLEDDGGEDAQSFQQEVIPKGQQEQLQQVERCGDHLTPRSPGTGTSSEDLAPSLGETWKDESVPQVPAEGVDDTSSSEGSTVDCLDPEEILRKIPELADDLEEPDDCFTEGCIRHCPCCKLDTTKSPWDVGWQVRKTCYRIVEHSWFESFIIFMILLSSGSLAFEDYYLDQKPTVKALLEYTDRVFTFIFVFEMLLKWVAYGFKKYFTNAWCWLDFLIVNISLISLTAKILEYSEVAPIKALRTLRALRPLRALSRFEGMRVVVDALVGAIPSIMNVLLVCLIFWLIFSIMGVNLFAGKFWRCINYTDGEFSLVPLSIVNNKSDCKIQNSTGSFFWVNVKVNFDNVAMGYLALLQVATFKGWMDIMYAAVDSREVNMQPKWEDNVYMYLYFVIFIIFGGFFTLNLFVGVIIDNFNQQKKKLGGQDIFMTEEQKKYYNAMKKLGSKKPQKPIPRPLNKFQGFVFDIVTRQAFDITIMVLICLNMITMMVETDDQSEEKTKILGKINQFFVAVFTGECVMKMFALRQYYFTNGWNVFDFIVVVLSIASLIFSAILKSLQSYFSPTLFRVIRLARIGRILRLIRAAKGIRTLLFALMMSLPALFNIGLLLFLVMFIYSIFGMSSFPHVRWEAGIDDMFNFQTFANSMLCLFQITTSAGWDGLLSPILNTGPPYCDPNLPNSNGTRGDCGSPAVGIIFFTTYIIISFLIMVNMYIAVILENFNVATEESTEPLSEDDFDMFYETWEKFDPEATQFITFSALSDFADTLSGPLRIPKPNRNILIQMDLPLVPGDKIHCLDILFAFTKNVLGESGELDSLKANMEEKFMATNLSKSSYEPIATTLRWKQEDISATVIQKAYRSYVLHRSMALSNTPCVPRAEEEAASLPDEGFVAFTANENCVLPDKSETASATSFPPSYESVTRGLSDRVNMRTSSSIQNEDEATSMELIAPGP
Kind of assay: FLIPR membrane potential assay, hNav1.8. Conditions: for Selectivity for Nav1.7, Nav subtype 1.8: membrane potential assay. The method, then:
as §1, §2

SMILES strings stand for the structures. Where a SMILES comes first, the peptide text is derived from it. Bridges are numbered along the chain shown (N, C = ends). [ ]: non-standard residue; d: D form. Nle = CCCC[C@H](N)C(=O)O Some results are limits rather than exact numbers.

On to `CSCC[C@@H]1NC(=O)[C@H](Cc2ccc(O)cc2)NC(=O)[C@H](CCCNC(=N)N)NC(=O)[C@@H](NC(=O)[C@@H](N)CC(=O)O)CSSC[C@@H]2NC(=O)[C@@H]3CSSC[C@@H](C(=O)N[C@@H](C)C(=O)N[C@@H](Cc4c[nH]c5ccccc45)C(=O)N[C@@H](CC(=O)O)C(=O)N[C@@H](Cc4ccccc4)C(=O)N[C@H](C(=O)N[C@@H](Cc4ccccc4)C(=O)N[C@H](C(=O)O)[C@@H](C)O)[C@@H](C)O)NC(=O)[C@H](Cc4ccc(O)cc4)NC(=O)[C@H](CCCCN)NC(=O)[C@H](CCSC)NC(=O)[C@H](CCCCN)NC(=O)[C@H](CCCNC(=N)N)NC(=O)[C@H](CCCCN)NC(=O)[C@H](CSSC[C@H](NC(=O)[C@H](CC(=O)O)NC(=O)CNC(=O)[C@H](Cc4ccccc4)NC1=O)C(=O)N[C@@H](CCC(=O)O)C(=O)N[C@@H](CCCCN)C(=O)N[C@@H](CC(=O)O)C(=O)N[C@@H](C)C(=O)N[C@@H](CC(=O)O)C(=O)N3)NC(=O)CNC(=O)[C@H](CC(C)C)NC(=O)[C@H](Cc1c[nH]cn1)NC(=O)[C@H](CCCCN)NC2=O` [[E13A]Pnc1a] (H-DCRYMFGDCEKDADCCKHLGCKRKMKYCAWDFTFT-OH; disulfide 2-16, 9-21, 15-28), for which, in assay [1], half-maximal inhibition (IC50) required 4 µM and the “Selectivity for Nav1.7, Nav subtype 1.1” value turned out to be 29. In addition, in assay [2], half-maximal inhibition (IC50) was put at 8 µM and the “Selectivity for Nav1.7, Nav subtype 1.6” value is recorded as 61. Further, in assay [3], the IC50 is 5 µM and the “Selectivity for Nav1.7, Nav subtype 1.4” value was found to be 36. Also, in assay [4], the IC50 was found to be 2 µM and the “Selectivity for Nav1.7, Nav subtype 1.3” value is 18. Moreover, in assay [5], half-maximal inhibition (IC50) required 0.139 µM and the “Selectivity for Nav1.7, Nav subtype 1.7” value is 1. In assay [6], the IC50 amounted to 0.566 µM and the “Selectivity for Nav1.7, Nav subtype 1.2” value is listed as 4. In assay [7], the IC50 is above 30 µM and the “Selectivity for Nav1.7, Nav subtype 1.5” value is recorded as above 217. In assay [8], the half-inhibitory concentration (IC50) was above 30 µM and the “Selectivity for Nav1.7, Nav subtype 1.8” value was above 217.
On to `CSCC[C@@H]1NC(=O)[C@H](Cc2ccc(O)cc2)NC(=O)[C@H](CCCNC(=N)N)NC(=O)[C@@H](NC(=O)[C@@H](N)CC(=O)O)CSSC[C@@H]2NC(=O)[C@@H]3CSSC[C@@H](C(=O)N[C@@H](C)C(=O)N[C@@H](Cc4c[nH]c5ccccc45)C(=O)N[C@@H](CC(=O)O)C(=O)N[C@@H](Cc4ccccc4)C(=O)N[C@H](C(=O)N[C@@H](Cc4ccccc4)C(=O)N[C@H](C(=O)O)[C@@H](C)O)[C@@H](C)O)NC(=O)[C@H](Cc4ccc(O)cc4)NC(=O)[C@H](CCCCN)NC(=O)[C@H](CCSC)NC(=O)[C@H](CCCNC(=N)N)NC(=O)[C@H](CCCNC(=N)N)NC(=O)[C@H](CCCCN)NC(=O)[C@H](CSSC[C@H](NC(=O)[C@H](CC(=O)O)NC(=O)CNC(=O)[C@H](Cc4ccccc4)NC1=O)C(=O)N[C@@H](CCC(=O)O)C(=O)N[C@@H](CCCCN)C(=O)N[C@@H](CC(=O)O)C(=O)N[C@@H](CCC(=O)O)C(=O)N[C@@H](CC(=O)O)C(=O)N3)NC(=O)CNC(=O)[C@H](CC(C)C)NC(=O)[C@H](Cc1c[nH]cn1)NC(=O)[C@H](CCCCN)NC2=O` [[K24R]Pnc1a] (H-DCRYMFGDCEKDEDCCKHLGCKRRMKYCAWDFTFT-OH; disulfide 2-16, 9-21, 15-28), for which, in assay [1], 0.856 µM corresponded to half-maximal inhibition (IC50) and the “Selectivity for Nav1.7, Nav subtype 1.1” value worked out at 27. In addition, in assay [2], the IC50 was above 30 µM and the “Selectivity for Nav1.7, Nav subtype 1.6” value is reported as above 900. Moreover, in assay [3], the IC50 was 3 µM and the “Selectivity for Nav1.7, Nav subtype 1.4” value stood at 102. Moreover, in assay [4], half-maximal inhibition (IC50) was put at 8 µM and the “Selectivity for Nav1.7, Nav subtype 1.3” value stood at 260. Also, in assay [5], 0.031 µM corresponded to half-maximal inhibition (IC50) and the “Selectivity for Nav1.7, Nav subtype 1.7” value is listed as 1. Also, in assay [6], the IC50 amounted to 0.414 µM and the “Selectivity for Nav1.7, Nav subtype 1.2” value was 13. In assay [7], the IC50 was above 30 µM and the “Selectivity for Nav1.7, Nav subtype 1.5” value is above 900. Moreover, in assay [8], the IC50 was above 30 µM and the “Selectivity for Nav1.7, Nav subtype 1.8” value is given as above 900.
For `CCCC[C@@H]1NC(=O)[C@H](Cc2ccc(O)cc2)NC(=O)[C@H](CCCNC(=N)N)NC(=O)[C@@H](NC(=O)[C@@H](N)CC(=O)O)CSSC[C@@H]2NC(=O)[C@@H]3CSSC[C@@H](C(=O)N[C@@H](C)C(=O)N[C@@H](Cc4c[nH]c5ccccc45)C(=O)N[C@@H](CC(=O)O)C(=O)N[C@@H](Cc4ccccc4)C(=O)N[C@H](C(=O)N[C@@H](Cc4ccccc4)C(=O)N[C@H](C(=O)O)[C@@H](C)O)[C@@H](C)O)NC(=O)[C@H](Cc4ccc(O)cc4)NC(=O)[C@H](CCCCN)NC(=O)[C@H](CCCC)NC(=O)[C@H](CCCCN)NC(=O)[C@H](CCCNC(=N)N)NC(=O)[C@H](CCCCN)NC(=O)[C@H](CSSC[C@H](NC(=O)[C@H](CC(=O)O)NC(=O)CNC(=O)[C@H](Cc4ccccc4)NC1=O)C(=O)N[C@@H](CCC(=O)O)C(=O)N[C@@H](CCCCN)C(=O)N[C@@H](CC(=O)O)C(=O)N[C@@H](CCC(=O)O)C(=O)N[C@@H](CC(=O)O)C(=O)N3)NC(=O)CNC(=O)[C@H](CC(C)C)NC(=O)[C@H](Cc1c[nH]cn1)NC(=O)[C@H](CCCCN)NC2=O` [[M5,25Nle]Pnc1a] (H-DCRY[Nle]FGDCEKDEDCCKHLGCKRK[Nle]KYCAWDFTFT-OH; disulfide 2-16, 9-21, 15-28), in assay [1], it took 2 µM to reach half-maximal inhibition (IC50) and the “Selectivity for Nav1.7, Nav subtype 1.1” value amounted to 17. In assay [2], the IC50 was 5 µM and the “Selectivity for Nav1.7, Nav subtype 1.6” value was found to be 41. In addition, in assay [3], the IC50 stood at 3 µM and the “Selectivity for Nav1.7, Nav subtype 1.4” value was 22. In assay [4], inhibition was half-maximal at 1 µM (IC50) and the “Selectivity for Nav1.7, Nav subtype 1.3” value is 10. In addition, in assay [5], the IC50 came out at 0.116 µM and the “Selectivity for Nav1.7, Nav subtype 1.7” value came out at 1. In assay [6], inhibition was half-maximal at 0.773 µM (IC50) and the “Selectivity for Nav1.7, Nav subtype 1.2” value is reported as 7. Moreover, in assay [7], the IC50 was above 30 µM and the “Selectivity for Nav1.7, Nav subtype 1.5” value is above 260. Moreover, in assay [8], the IC50 was above 30 µM and the “Selectivity for Nav1.7, Nav subtype 1.8” value is given as above 260.
Take `CSCC[C@@H]1NC(=O)[C@H](Cc2ccc(O)cc2)NC(=O)[C@H](CCCNC(=N)N)NC(=O)[C@@H](NC(=O)[C@@H](N)CC(=O)O)CSSC[C@@H]2NC(=O)[C@@H]3CSSC[C@@H](C(=O)N[C@@H](C)C(=O)N[C@@H](Cc4c[nH]c5ccccc45)C(=O)N[C@@H](CC(=O)O)C(=O)N[C@@H](Cc4ccccc4)C(=O)N[C@H](C(=O)N[C@@H](Cc4ccccc4)C(=O)N[C@H](C(=O)O)[C@@H](C)O)[C@@H](C)O)NC(=O)[C@H](Cc4ccc(O)cc4)NC(=O)[C@H](CCCCN)NC(=O)[C@H](CCSC)NC(=O)[C@H](CCCCN)NC(=O)[C@H](CCCCN)NC(=O)[C@H](CCCCN)NC(=O)[C@H](CSSC[C@H](NC(=O)[C@H](CC(=O)O)NC(=O)CNC(=O)[C@H](Cc4ccccc4)NC1=O)C(=O)N[C@@H](CCC(=O)O)C(=O)N[C@@H](CCCCN)C(=O)N[C@@H](CC(=O)O)C(=O)N[C@@H](CCC(=O)O)C(=O)N[C@@H](CC(=O)O)C(=O)N3)NC(=O)CNC(=O)[C@H](CC(C)C)NC(=O)[C@H](Cc1c[nH]cn1)NC(=O)[C@H](CCCCN)NC2=O` [[R23K]Pnc1a] (H-DCRYMFGDCEKDEDCCKHLGCKKKMKYCAWDFTFT-OH; disulfide 2-16, 9-21, 15-28): in assay [1], the midpoint of inhibition, the IC50, lay at 8 µM and the “Selectivity for Nav1.7, Nav subtype 1.1” value was 33. In assay [2], the midpoint of inhibition, the IC50, lay at 16 µM and the “Selectivity for Nav1.7, Nav subtype 1.6” value is on record as 63. In assay [3], it took 10 µM to reach half-maximal inhibition (IC50) and the “Selectivity for Nav1.7, Nav subtype 1.4” value was found to be 40. Further, in assay [4], the IC50 came out at 5 µM and the “Selectivity for Nav1.7, Nav subtype 1.3” value stood at 19. Moreover, in assay [5], the IC50 came to 0.251 µM and the “Selectivity for Nav1.7, Nav subtype 1.7” value turned out to be 1. In assay [6], the IC50 was determined as 3 µM and the “Selectivity for Nav1.7, Nav subtype 1.2” value came out at 14. In assay [7], the IC50 is above 30 µM and the “Selectivity for Nav1.7, Nav subtype 1.5” value is above 120. In addition, in assay [8], the IC50 was above 30 µM and the “Selectivity for Nav1.7, Nav subtype 1.8” value is on record as above 120.
